The record followed here is patent US5438062A, “Benzo(5,6)cycloheptapyridines, compositions and methods of use” (Schering Corporation, priority 1987, dated 1995).

One series relates to PAF-induced bronchospasm. Description: PAF-induced bronchospasm in guinea pigs. The format is in vivo. The following applies: guinea pig. The method, then: PAF is also a known bronchoconstrictive agent in mammals.
B. PAF-INDUCED BRONCHOSPASM IN GUINEA PIGS
Non-sensitized guinea Digs were fasted overnight, and the following morning were anesthetized with 0.9 ml/kg i.p. of dialurethane (0.1 g/ml of diallybarbituric acid, 0.4 g/ml of ethylurea and 0.4 g/ml of urethane). The trachea was cannulated and the animals were ventilated by a Harvard rodent respirator at 55 strokes/min. with a stroke volume of 4 ml. A side arm to the tracheal cannula was connected to a Harvard pressure transducer to obtain a continuous measure of intratracheal pressure, which was recorded on a Harvard Polygraph. The jugular vein was cannulated for the administration of compounds. The animals were challenged i.v. with PAF (0.4 ug/kg in isotonic saline containing 0.25% BSA) and the peak increase in inflation pressure that occurred within 5 min. after challenge was recorded. Test compounds were administered either orally (2 hrs. prior to PAF as a suspension in 0.4% methylcellulose vehicle) or intravenously (10 min. prior to PAF as a solution in dimethylsulfoxide).

In series [1] the test system is PAF-induced platelet aggregation (platelet-rich plasma). The series is described as follows: PAF antagonism, in vitro platelet aggregation assay. It is filed as cell-based. As to conditions: dose giving 50 % PAF antagonism, human PRP, PAF 1-5×10^-8 M. The protocol:
Blood was centrifuged at 110×g for 15 min. and the supernatant PRP carefully transferred into a polypropylene tube. Platelet-poor-plasma (PPP) was prepared by centrifuging PRP at 12,000×g for 2 min. in a Beckman Microfuge B. PRP was used within 3 hours of drawing the blood.
Platelet Aggregation Assay: When an aggregating agent such as PAF is added to PRP, platelets aggregate. An aggregometer quantifies this aggregation by measuring light (infra-red) transmission through PRP and comparing to PPP. The aggregation assays were performed using a dual-channel aggregometer (Model 440, Chrono-Log Corp., Hayertown, Pa.). PRP (0.45 ml) in aggregometer curettes was continually stirred (37° C.). Solutions of test compounds or vehicle were added to the PRP, and after incubation for 2 min., 10-15 μl aliquots of PAF solution were added so as to achieve a final concentration of 1-5×10^-8 M. Incubations were continued until the increase in light transmission reached a maximum (usually about 2 min). Values for inhibition were calculated by comparing maximal aggregation obtained in the absence and the presence of the compound. For each experiment, a standard PAF antagonist, such as alprazolam, was used as a positive internal control. […] The test results are shown below in Tables Ia, Ib and Ic.

Series [2] relates to histamine-induced lethality. Description: Antihistamine activity: prevention of histamine-induced lethality in guinea pigs. It is filed as in vivo. The following applies: Cavia porcellus, guinea pig; for responders at 5 mg/kg: oral dose 5 mg/kg PO. The method, then: C. ANTIHISTAMINE ACTIVITY ASSAY
Prevention of Histamine-Induced Lethality in Guinea Pigs. Some of compounds shown below in Table I also were evaluated for antihistamine activity by their ability to protect female albino guinea pigs (250-350 g) against death induced by the intravenous injection of histamine dihydrochloride at 1.1 mg/kg, which is approximately twice the LD99. Doses of the antagonists were administered orally to separate groups of fasted animals 1 hour prior to the challenge with histamine and protection from death recorded for 30 minutes after histamine. ED50 values were determined for each drug by probit analysis.

A short description of series [3]: CNS activity: antagonism of physostigmine lethality. As to conditions: mouse, in vivo; mice, oral, 30 minutes prior to physostigmine 1.0 mg/kg s.c.
Method: D. Antagonism of Physostigmine Lethality. The physostigmine-induced lethality test is indicative of CNS activity and the test described is a modification of the technique reported by COLLIER et al., Br. J. Pharmac., 32, 295-310 (1968). physostigmine salicylate (1.0 mg/kg s.c.) produces 100% lethality when administered to mice grouped 10 per plastic cage (11×26×13 cm). Test agents were administered orally 30 minutes prior to physostigmine. The number of survivors were counted 20 minutes after physostigmine administration.
Series [4] can be described thus: CNS activity: antagonism of electro-convulsive shock (ECS). The following applies: mouse, in vivo; mice, oral, one hour before ECS; read-out: ECS test ED50. The protocol:
F. Antagonism of Electro-Convulsive Shock (ECS). The ECS test is a third test useful for determining CNS activity. […] One hour after oral administration of the test drug or vehicle, mice were administered a 13 mA, 60 cycle a.c. electroconvulsant shock (ECS) for 0.2 seconds via corneal electrodes.

The nature of series [5]: CNS activity: antagonism of acetic acid writhing. As to conditions: mouse, in vivo; mice, oral, 15 minutes before acetic acid i.p. The protocol: E. Antagonism of Acetic Acid Writhing. The acetic acid writhing test is a second test useful for determining CNS activity, and is essentially that described by HENDERSHOT and FORSAITH, J. Pharmac. […] Mice were injected with 0.6% aqueous acetic acid at 10 mg/kg i.p. 15 minutes after oral administration of the test drug. The number of writhes for each animal was counted during a 10 minute period starting 3 minutes after acetic acid treatment. A writhe was defined as a sequence of arching of the back, pelvic rotation and hind limb extension.

[6] abbreviates: 0.5 h, 1 hour before histamine 1.1 mg/kg i.v., read-out: Antihistaminic Activity, % Survival.

With `CC(=O)N1CCC(=C2c3ccc(F)cc3CCc3cccnc32)CC1` [R = CH3, Z = O, R^3 = F, R^4 = H, 8-fluoro-11-(1-acetyl-4-piperidylidene)-6,11-dihydro-5H-benzo[5,6]cyclohepta[1,2-b]pyridine], in the series on PAF-induced bronchospasm (3 mg/kg (iv)), the “inhibition of PAF-induced bronchospasm” value is reported as 99%. The IC50 (usually the concentration at which inhibition is half-maximal) in series [1] stood at 700 nM. In series [2] (setting [6]), the responders at 5 mg/kg amounted to 20%.

As for `CC(=O)N1CCC(=C2c3cc(F)ccc3CCc3cccnc32)CC1` [R = CH3, Z = O, R^3 = H, R^4 = F, 9-fluoro-11-(1-acetyl-4-piperidylidene)-6,11-dihydro-5H-benzo[5,6]cyclohepta[1,2-b]pyridine], the “inhibition of PAF-induced bronchospasm” value in the series with PAF-induced bronchospasm (3 mg/kg (iv)) amounted to 97%. Moreover, in series [1], the IC50 stood at 900 nM. Besides, the responders at 5 mg/kg in series [2] (setting [6]) was 0%.

On to `CN1CCC(=C2c3ccccc3CCc3cccnc32)CC1` [R^3 = H, R^4 = H, A = H, CZR = CH3, reference compound], for which the ED50 (as a rule, the midpoint of the dose-response relation) in series [3] is 6.1 mg/kg; in series [4] it was above 80 mg/kg; in series [5], 8.9 mg/kg; in series [2] (oral, probit analysis, read-out: Antihistaminic Activity, ED50) it was 0.009 mg/kg. The compound also returned an IC50 in series [1] above 100000 nM.

With `CC(=O)N1CCC(=C2c3ccc(Cl)cc3CCc3cccnc32)CC1` [Z = O, R = CH3, R^3 = Cl, R^4 = H, 8-chloro-11-(1-acetyl-4-piperidylidene)-6,11-dihydro-5H-benzo[5,6]cyclohepta[1,2-b]pyridine], the “inhibition of PAF-induced bronchospasm” value in the series with PAF-induced bronchospasm (1 mg/kg intravenously) is recorded as 75%. In addition, in series [1], half-maximal inhibition (IC50) was put at 700 nM. The ED50 was above 320 mg/kg in series [4] and above 160 mg/kg in series [5]. Besides, the responders at 1 mg/kg in series [2] (0.5 h, oral dose 1 mg/kg PO, 1 hour before histamine 1.1 mg/kg i.v., read-out: Antihistaminic Activity, % Survival) is 60%. Further, the responders at 5 mg/kg in series [2] (setting [6]) is 100%.
